Here are results for 51 molecules from PubChem BioAssay AID1996.

The structures appear in SMILES notation. In brackets after ≈: the same amount, converted by molar mass.

The conditions of the series: buffer; pH 7.4; 200.0 µM.
For the molecule `COc1ccc(CN(C)C(=O)c2ccc3ccccc3n2)cc1F`, the kinetic solubility is more than 48.7 µg/mL. As for `O=[N+]([O-])c1cccc(NC(=S)N2CCN(c3ccccn3)CC2)c1`, the kinetic solubility turned out to be 1.2 µg/mL (≈ 3.49 µM).

In turn, `COc1ccc(C(=O)CC(=O)C(=O)Nc2c(C)cccc2C)cc1` showed a kinetic solubility of 15.6 µg/mL (≈ 47.9 µM). The result for `CCNC(=S)Nc1ccc(N2CCCCC2)cc1` reads more than 39.5 µg/mL. With `CCCCN1C(=O)C(=O)N(CC(=O)NC2CCCc3ccccc32)C1=O` (stereo unspecified) the figure was 50.9 µg/mL (≈ 142 µM). With `CCOc1ccc(NC(=O)NC(=O)N(C(C)C)S(C)(=O)=O)cc1` the figure was 43.1 µg/mL (≈ 126 µM); with `c1ccc(-c2cnc(CN3CCN(c4ccccc4)CC3)o2)cc1`, 40 µg/mL (≈ 125 µM). For `CC(NC(=O)c1ccc([N+](=O)[O-])cc1Cl)C1CC2CCC1C2` (stereo unspecified), the kinetic solubility was 28 µg/mL (≈ 86.7 µM). For `O=C(NCc1ccccn1)Nc1cccc([N+](=O)[O-])c1`, the kinetic solubility is more than 40.8 µg/mL. The molecule `COc1ccc(C/C(N)=N/OC(=O)c2ccco2)cc1OC` registered a kinetic solubility of more than 45.6 µg/mL. As to `Cc1cc(OCC(=O)N2CCN(CC(=O)N3CCOCC3)CC2)c(C(C)C)cc1Cl`, the kinetic solubility is more than 65.7 µg/mL. With `COC(=O)c1ccc(C)c(NS(=O)(=O)c2cn(C)nc2C)c1` the figure was more than 48.5 µg/mL. With `Cc1ccc(Nc2nc(C(=O)NCC3CCCO3)cs2)cc1` (stereo unspecified), the solubility (kinetic) turned out to be 9 µg/mL (≈ 28.4 µM). With `O=C1CC(C(=O)N2CCCc3ccccc32)CN1c1ccc(F)cc1` (stereo unspecified) the figure was 46.5 µg/mL (≈ 137 µM); with `COc1ccc(CNC(=O)CSc2nc3ccc(OC)cc3[nH]2)cc1`, more than 53.6 µg/mL; with `O=C(CSCc1ccccc1F)NCc1ccc(F)cc1`, more than 46.1 µg/mL. The result for `CCOC(=O)C(C)Oc1ccc(NC(=O)C(Cl)(Cl)Cl)cc1` (stereo unspecified) reads 51.1 µg/mL (≈ 144 µM); that for `CCN(C(=O)COC(=O)CNC(=O)c1ccc(Cl)cc1Cl)c1c(N)n(Cc2ccccc2)c(=O)[nH]c1=O`, more than 82.3 µg/mL; that for `COc1ccccc1-c1noc(-c2ccccc2C(=O)NCc2ccco2)n1`, 49.4 µg/mL (≈ 132 µM). `CCOC(=O)c1cnc(SCC(=O)OC)nc1N` came in with a solubility (kinetic) of more than 40.7 µg/mL. With `O=C(CSCc1ccc(Cl)cc1)Nc1ccc(O)cc1C(=O)O` the figure was more than 52.8 µg/mL. With `O=C(Nc1cccc(F)c1)Nc1ccc2c(c1)CCC2` the figure was less than 0.3 µg/mL; with `O=S1(=O)CCN(Cc2ccccc2C(F)(F)F)CC1`, more than 44 µg/mL; with `CCc1ccc(N2CN(Cc3ccco3)CNC2=S)cc1`, 11.9 µg/mL (≈ 39.5 µM). The result for `Cc1cc(C(=O)OCC(=O)Nc2ccccc2C(F)(F)F)on1` reads more than 49.2 µg/mL. `NC(=O)COC(=O)Cc1coc2cc3c(cc12)CCC3` had a kinetic solubility of 35.6 µg/mL (≈ 130 µM). `O=C(NC(=O)N1CCCCCC1)c1ccccc1` showed a kinetic solubility of more than 36.9 µg/mL. `CN(C)C(=O)CN1C(=O)NC2(CCc3ccccc32)C1=O` (stereo unspecified) displayed a kinetic solubility of more than 43.1 µg/mL. With `CCOC(=O)c1sc(=NC(=O)/C=C/c2ccccc2)n(C)c1C` the figure was less than 0.4 µg/mL. `COc1ccc(NC(=O)CN2C(=O)NC3(CCCCC3C)C2=O)cc1S(=O)(=O)N1CCOCC1` (stereo unspecified) showed a solubility (kinetic) of more than 74.2 µg/mL. With `CCOc1ccc(NC(=O)c2ccc(NC(=O)c3ccc(NC(N)=O)cc3)cc2)cc1` the figure was 2 µg/mL (≈ 4.78 µM).

Turning to `O=C(NCCC1CC1(Cl)Cl)Nc1ccccc1` (stereo unspecified), the kinetic solubility was more than 41 µg/mL. The result for `Cc1ccc(OCCNCc2ccccc2)c(C)c1.O=C(O)C(=O)O` reads 45.8 µg/mL. The result for `O=C(Nc1scc(-c2ccccc2)c1C(=O)O)c1ccccc1Cl` reads 52.6 µg/mL (≈ 147 µM).

Molecule `O=C(/C=C/c1ccc(Cl)cc1)Nc1nccs1` returned a solubility (kinetic) of 1.1 µg/mL (≈ 4.16 µM). With `Cc1ccc(C(=O)Nc2nccs2)cc1` the figure was 16.5 µg/mL (≈ 75.6 µM); with `O=C(O)c1ccc(Cl)c(S(=O)(=O)N2CCCC2)c1`, more than 43.5 µg/mL; with `COC(=O)c1ccc(NC(=O)c2cc(Cl)ccc2OC)cc1`, less than 0.7 µg/mL.

For `O=C(CNC(=O)c1ccco1)Nc1ccc(Cl)cc1`, the kinetic solubility is 24.1 µg/mL (≈ 86.5 µM). `CCOc1ccc(S(=O)(=O)Nc2ccc(C(=O)NCC(c3ccc(OC)cc3)N3CCOCC3)cc2)cc1` (stereo unspecified) returned a solubility (kinetic) of 37.9 µg/mL (≈ 70.2 µM). For `CN1CCN(C(=O)c2cc(=O)c3cc(Cl)ccc3o2)CC1`, the solubility (kinetic) is more than 46 µg/mL. As for `Cc1ccc(S(=O)(=O)CCC(=O)Nc2ccccc2C)cc1`, the kinetic solubility came to 21.9 µg/mL (≈ 69 µM). On to `Cc1ccc(SC(C)C(=O)NC2CC2)cc1` (stereo unspecified), for which the kinetic solubility was more than 35.3 µg/mL. The molecule `COc1ccc(C(=O)OCC(=O)Nc2sccc2C(N)=O)cc1OC` displayed a kinetic solubility of 1 µg/mL (≈ 2.74 µM). `CC(=O)N1CCc2cc(S(=O)(=O)Nc3ccc(C)cc3)ccc21` showed a kinetic solubility of 3.6 µg/mL (≈ 10.9 µM). In the case of `Cc1cc(C)c2cc(C(=O)N3CCC(N4CCCCC4)CC3)[nH]c2c1`, the solubility (kinetic) was more than 50.9 µg/mL. For `COc1ccc(Nc2ccc([N+](=O)[O-])c3nonc23)c(OC)c1`, the kinetic solubility is less than 0.2 µg/mL.

On to `c1ccc(CCNc2nc(-c3ccncc3)nc3ccccc23)cc1`, for which the kinetic solubility was determined as 0.3 µg/mL (≈ 0.919 µM). In turn, `CCC(=O)c1ccc(SC(=O)N(C)C)cc1O` gave a kinetic solubility of 33.7 µg/mL (≈ 133 µM). The result for `O=S(=O)(c1ccc2[nH]c3c(c2c1)CCCC3)N1CCCCC1` reads 12.3 µg/mL (≈ 38.6 µM). Molecule `O=C(Nc1nncs1)C1CC(=O)N(C2CCCC2)C1` (stereo unspecified) came in with a solubility (kinetic) of more than 42.1 µg/mL.

Usually kinetic solubility stands for solubility judged after dilution from a stock solution rather than from solid.
